From PubChem BioAssay AID296 (DTP/NCI, 2004)
Several values for one entry are separate records, joined by “and”; a condition that tells them apart may be missing. Equal entries are not always repeated. Results filed as inconclusive are left out.

Tested on: MX-1 breast xenograft, nude mice, tumor weight T/C
Test: NCI In Vivo Anticancer Drug Screen. Data for tumor model Human Mammary Carcinoma MX-1 Xenograft (intrarenal inoculation) in NU/NU Swiss (nude) mice
Settings: endpoint: mean tumor weight change, higher = larger tumour
Outline: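 Compound dosed to mice with transplantable tumor; vehicle group as control. Endpoint survival or tumour size, reported as T/C.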

[1] = dose: 200.0 mg/kg/injection, schedule: Q01DX010 (sc), vehicle: saline
[2] = dose: 100.0 mg/kg/injection, schedule: Q04DX003 (sc), vehicle: saline with Tween-80
[3] = dose: 200.0 mg/kg/injection, schedule: Q04DX003 (sc), vehicle: saline with Tween-80

Q: Which T/C (dose: 12.5 mg/kg/injection, schedule: Q04DX003 (sc), vehicle: saline) does the source give for `C[CH2][Ge]1([CH2]C)[CH2]CC2(CCN(CCCN(C)C)C2)C[CH2]1` here?
A: 72 % of control

Q: And the T/C (dose: 25.0 mg/kg/injection, schedule: Q04DX003 (sc), vehicle: saline)?
A: 92 % of control

Q: What about the T/C (dose: 50.0 mg/kg/injection, schedule: Q04DX003 (sc), vehicle: saline) of the same molecule?
A: 72 % of control

Q: And the T/C (dose: 100.0 mg/kg/injection, schedule: Q04DX003 (sc), vehicle: saline)?
A: 85 % of control

Q: How did the T/C (dose: 50.0 mg/kg/injection, schedule: Q01DX010 (sc), vehicle: saline) turn out when `OCC1(CO)COC2(CCCCC2)N1` was run?
A: 107 % of control

Q: And the T/C [1]?
A: 75 % of control

Q: And the T/C (dose: 200.0 mg/kg/injection, schedule: Q01DX010 (sc), vehicle: suspension in saline)?
A: 83 % of control

Q: And the T/C (dose: 400.0 mg/kg/injection, schedule: Q01DX010 (sc), vehicle: suspension in saline)?
A: 56 % of control

Q: What about the T/C (dose: 800.0 mg/kg/injection, schedule: Q01DX010 (sc), vehicle: suspension in saline) of the same molecule?
A: 63 % of control

Q: What about the T/C (dose: 1600.0 mg/kg/injection, schedule: Q01DX010 (sc), vehicle: suspension in saline) of the same molecule?
A: 105 % of control

Q: Which T/C (dose: 150.0 mg/kg/injection, schedule: Q04DX003 (sc), vehicle: Klucel (hydroxypropylcellulose) (HPC)) does the source give for `COC1=CC(=O)N(C(=O)C2CSC(C(CO)NC(=O)c3csc(/C=N/O)n3)=N2)C1` (centres undefined) here?
A: 79 % of control

Q: What about the T/C (dose: 300.0 mg/kg/injection, schedule: Q04DX003 (sc), vehicle: Klucel (hydroxypropylcellulose) (HPC)) of the same molecule?
A: 81 % of control

Q: And the T/C (dose: 600.0 mg/kg/injection, schedule: Q04DX003 (sc), vehicle: Klucel (hydroxypropylcellulose) (HPC))?
A: 95 % of control

Q: Which results are given for `Cn1c2ccccc2c2ccc3c(c21)C(=O)C=CC3=O`?
A: T/C (dose: 75.0 mg/kg/injection, schedule: Q04DX003 (sc), vehicle: saline with Tween-80): 62 % of control; T/C (dose: 150.0 mg/kg/injection, schedule: Q04DX003 (sc), vehicle: saline with Tween-80): 61 % of control; T/C (dose: 300.0 mg/kg/injection, schedule: Q04DX003 (sc), vehicle: saline with Tween-80): 117 % of control; T/C (dose: 600.0 mg/kg/injection, schedule: Q04DX003 (sc), vehicle: saline with Tween-80): 88 % of control

Q: Which results are given for `Nc1nc([Se])c2ncn(C3OC(CO)C(O)C3O)c2n1` (centres undefined)?
A: T/C (dose: 2.0 mg/kg/injection, schedule: Q01DX010 (sc), vehicle: saline): 85 % of control and 101 % of control; T/C (dose: 6.66 mg/kg/injection, schedule: Q04DX003 (ip), vehicle: saline): 76 % of control; T/C (dose: 6.66 mg/kg/injection, schedule: Q04DX003 (sc), vehicle: saline): 72 % of control; T/C (dose: 8.0 mg/kg/injection, schedule: Q01DX010 (ip), vehicle: saline): 45 % of control; T/C (dose: 13.33 mg/kg/injection, schedule: Q04DX003 (ip), vehicle: saline): 46 % of control; T/C (dose: 26.65 mg/kg/injection, schedule: Q04DX003 (ip), vehicle: saline): 74 % of control; T/C (dose: 53.3 mg/kg/injection, schedule: Q04DX003 (ip), vehicle: saline): 63 % of control; T/C (dose: 53.33 mg/kg/injection, schedule: Q04DX003 (sc), vehicle: saline): 89 % of control

Q: `O=NN(CCF)C(=O)NC1CCCCC1` was tested. Which T/C (dose: 3.12 mg/kg/injection, schedule: Q04DX003 (sc), vehicle: Klucel (hydroxypropylcellulose) (HPC)) did it give?
A: 119 % of control

Q: And the T/C (dose: 6.25 mg/kg/injection, schedule: Q04DX003 (sc), vehicle: Klucel (hydroxypropylcellulose) (HPC))?
A: 88 % of control

Q: And the T/C (dose: 12.5 mg/kg/injection, schedule: Q04DX003 (sc), vehicle: Klucel (hydroxypropylcellulose) (HPC))?
A: 91 % of control

Q: And the T/C (dose: 25.0 mg/kg/injection, schedule: Q04DX003 (sc), vehicle: Klucel (hydroxypropylcellulose) (HPC))?
A: 92 % of control

Q: `COc1cc(OC)c(NC(=O)ON2C(=O)c3ccccc3C2=O)cc1Cl` was tested. Which T/C (dose: 50.0 mg/kg/injection, schedule: Q04DX003 (sc), vehicle: saline with Tween-80) did it give?
A: 95 % of control

Q: What about the T/C [2] of the same molecule?
A: 103 % of control

Q: And the T/C [3]?
A: 85 % of control

Q: What about the T/C (dose: 400.0 mg/kg/injection, schedule: Q04DX003 (sc), vehicle: saline with Tween-80) of the same molecule?
A: 114 % of control

Q: Which T/C [1] does the source give for `CN(C)C=O` here?
A: 10 % of control

Q: And the T/C (dose: 1896.0 mg/kg/injection, schedule: Q01DX010 (sc), vehicle: suspension in saline)?
A: 1 % of control

Q: What about the T/C (dose: 2844.0 mg/kg/injection, schedule: Q01DX010 (sc), vehicle: suspension in saline) of the same molecule?
A: -44 % of control

Q: What about the T/C (dose: 4266.0 mg/kg/injection, schedule: Q01DX010 (sc), vehicle: suspension in saline) of the same molecule?
A: -11 % of control

Q: `CC[C@](O)(C(=O)O)c1cc2n(c(=O)c1CO)Cc1cc3ccccc3nc1-2` was tested. Which T/C (dose: 8.0 mg/kg/injection, schedule: Q04DX003 (sc), vehicle: saline) did it give?
A: 2 % of control

Q: What about the T/C (dose: 16.0 mg/kg/injection, schedule: Q04DX003 (sc), vehicle: saline) of the same molecule?
A: -92 % of control

Q: And the T/C (dose: 32.0 mg/kg/injection, schedule: Q04DX003 (sc), vehicle: saline)?
A: -89 % of control

Q: What about the T/C (dose: 64.0 mg/kg/injection, schedule: Q04DX003 (sc), vehicle: saline) of the same molecule?
A: -100 % of control

Q: For `COC1C(C)OC(OC2CC(C)(O)Cc3cc4c(c(O)c32)C(=O)c2c(O)cc3c(c2C4=O)OC2OC3(C)C(O)C(N(C)C)C2O)C(OC)C1(C)OC` (centres undefined), which T/C (dose: 10.0 mg/kg/injection, schedule: Q04DX003 (sc), vehicle: Klucel (hydroxypropylcellulose) (HPC)) is on record?
A: 82 % of control

Q: And the T/C (dose: 20.0 mg/kg/injection, schedule: Q04DX003 (sc), vehicle: Klucel (hydroxypropylcellulose) (HPC))?
A: 94 % of control

Q: What about the T/C (dose: 40.0 mg/kg/injection, schedule: Q04DX003 (sc), vehicle: Klucel (hydroxypropylcellulose) (HPC)) of the same molecule?
A: 84 % of control

Q: What about the T/C (dose: 80.0 mg/kg/injection, schedule: Q04DX003 (sc), vehicle: Klucel (hydroxypropylcellulose) (HPC)) of the same molecule?
A: 76 % of control

Q: What does the source list for `O=C1N[C@@H]([C@H]2CC[C@H](Cl)CN2)C(=O)N[C@H]1[C@H]1CC[C@H](Cl)CN1`?
A: T/C (dose: 0.62 mg/kg/injection, schedule: Q01DX010 (sc), vehicle: water): 110 % of control; T/C (dose: 2.5 mg/kg/injection, schedule: Q01DX010 (sc), vehicle: water): 72 % of control and 73 % of control; T/C (dose: 2.5 mg/kg/injection, schedule: Q04DX003 (sc), vehicle: water): 11 % of control; T/C (dose: 5.0 mg/kg/injection, schedule: Q01DX010 (sc), vehicle: water): 30 % of control and 46 % of control; T/C (dose: 5.0 mg/kg/injection, schedule: Q04DX003 (sc), vehicle: water): -62 % of control; T/C (dose: 10.0 mg/kg/injection, schedule: Q04DX003 (sc), vehicle: water): -100 % of control; T/C (dose: 20.0 mg/kg/injection, schedule: Q04DX003 (sc), vehicle: water): -100 % of control

Q: For `CN(C)CCN1C(=O)c2cccc3cc([N+](=O)[O-])cc(c23)C1=O`, which T/C (dose: 9.0 mg/kg/injection, schedule: Q04DX003 (sc), vehicle: saline with Tween-80) is on record?
A: 52 % of control

Q: What about the T/C (dose: 18.0 mg/kg/injection, schedule: Q04DX003 (sc), vehicle: saline with Tween-80) of the same molecule?
A: 43 % of control

Q: What about the T/C (dose: 36.0 mg/kg/injection, schedule: Q04DX003 (sc), vehicle: saline with Tween-80) of the same molecule?
A: 55 % of control

Q: With `NC(C(=O)O)c1ccc(CBr)cc1` (centres undefined) as the molecule, how does the T/C (dose: 200.0 mg/kg/injection, schedule: Q04DX003 (sc), vehicle: acid diluted with saline) read?
A: 61 % of control

Q: And the T/C (dose: 400.0 mg/kg/injection, schedule: Q04DX003 (sc), vehicle: acid diluted with saline)?
A: 92 % of control

Q: And the T/C (dose: 800.0 mg/kg/injection, schedule: Q04DX003 (sc), vehicle: acid diluted with saline)?
A: 73 % of control

Q: What about the T/C (dose: 1600.0 mg/kg/injection, schedule: Q04DX003 (sc), vehicle: acid diluted with saline) of the same molecule?
A: 106 % of control

Q: How did the T/C (dose: 25.0 mg/kg/injection, schedule: Q01DX010 (sc), vehicle: distilled water + Tween-80) turn out when `CC(C)NC(=O)OCc1c(COC(=O)NC(C)C)c(-c2ccc(Cl)c(Cl)c2)n2c1CCC2` was run?
A: -21 % of control

Q: And the T/C (dose: 50.0 mg/kg/injection, schedule: Q01DX010 (sc), vehicle: distilled water + Tween-80)?
A: 16 % of control

Q: And the T/C (dose: 150.0 mg/kg/injection, schedule: Q04DX003 (ip), vehicle: saline)?
A: 21 % of control

Q: And the T/C (dose: 300.0 mg/kg/injection, schedule: Q04DX003 (ip), vehicle: saline)?
A: 28 % of control

Q: For `O=C(Nc1ccccc1C(=O)O)c1cc([N+](=O)[O-])cc([N+](=O)[O-])c1`, which T/C [2] is on record?
A: 101 % of control

Q: And the T/C [3]?
A: 120 % of control

Q: Which results are given for `C=C(C)C(=O)OC1C/C(CO)=C\C(O)C/C(C)=C/C2OC(=O)C(=C)C21` (centres undefined)?
A: T/C (dose: 20.0 mg/kg/injection, schedule: Q04DX003 (sc), vehicle: saline + alcohol): 55 % of control; T/C (dose: 40.0 mg/kg/injection, schedule: Q04DX003 (sc), vehicle: saline + alcohol): 106 % of control; T/C (dose: 80.0 mg/kg/injection, schedule: Q04DX003 (sc), vehicle: saline + alcohol): 66 % of control

Q: Which T/C (dose: 25.0 mg/kg/injection, schedule: Q01DX010 (sc), vehicle: saline) does the source give for `Cc1cn(C2CC3[O][Sn]([c]4ccccc4)([c]4ccccc4)[O]CC3O2)c(=O)[nH]c1=O` (centres undefined) here?
A: 93 % of control

Q: And the T/C (dose: 100.0 mg/kg/injection, schedule: Q01DX010 (sc), vehicle: saline)?
A: 93 % of control

Q: And the T/C [1]?
A: 115 % of control

Q: What about the T/C (dose: 600.0 mg/kg/injection, schedule: Q04DX003 (sc), vehicle: saline) of the same molecule?
A: 86 % of control

Q: And the T/C (dose: 1200.0 mg/kg/injection, schedule: Q04DX003 (sc), vehicle: saline)?
A: 107 % of control

Q: And the T/C (dose: 2400.0 mg/kg/injection, schedule: Q04DX003 (sc), vehicle: saline)?
A: 64 % of control
